According to US9695154B2, “Heteroaryl inhibitors of sumo activating enzyme” (MILLENNIUM PHARMACEUTICALS, INC., priority 2013, dated 2017):

Biological target: T1, recombinant human SAE enzyme (Homo sapiens, UniProt Q9UBT2)
T1 sequence (Q9UBT2 1-640): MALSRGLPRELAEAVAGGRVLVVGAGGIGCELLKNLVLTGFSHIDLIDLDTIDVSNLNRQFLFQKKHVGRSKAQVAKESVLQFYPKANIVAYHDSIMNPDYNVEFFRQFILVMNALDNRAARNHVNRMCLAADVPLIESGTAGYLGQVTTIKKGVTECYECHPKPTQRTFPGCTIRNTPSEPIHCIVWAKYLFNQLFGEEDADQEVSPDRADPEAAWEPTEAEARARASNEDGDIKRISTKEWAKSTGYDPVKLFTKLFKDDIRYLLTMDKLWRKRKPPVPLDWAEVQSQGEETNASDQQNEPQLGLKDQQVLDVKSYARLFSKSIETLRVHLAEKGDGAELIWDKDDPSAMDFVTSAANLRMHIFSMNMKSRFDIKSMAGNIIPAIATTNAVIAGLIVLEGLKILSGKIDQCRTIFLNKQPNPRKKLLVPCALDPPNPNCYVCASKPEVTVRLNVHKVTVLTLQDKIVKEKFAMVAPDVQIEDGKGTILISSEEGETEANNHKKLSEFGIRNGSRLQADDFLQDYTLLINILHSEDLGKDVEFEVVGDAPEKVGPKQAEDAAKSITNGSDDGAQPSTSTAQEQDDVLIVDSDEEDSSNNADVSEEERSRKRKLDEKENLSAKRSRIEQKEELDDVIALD
T1 sequence (Q9UBE0 1-346 partner): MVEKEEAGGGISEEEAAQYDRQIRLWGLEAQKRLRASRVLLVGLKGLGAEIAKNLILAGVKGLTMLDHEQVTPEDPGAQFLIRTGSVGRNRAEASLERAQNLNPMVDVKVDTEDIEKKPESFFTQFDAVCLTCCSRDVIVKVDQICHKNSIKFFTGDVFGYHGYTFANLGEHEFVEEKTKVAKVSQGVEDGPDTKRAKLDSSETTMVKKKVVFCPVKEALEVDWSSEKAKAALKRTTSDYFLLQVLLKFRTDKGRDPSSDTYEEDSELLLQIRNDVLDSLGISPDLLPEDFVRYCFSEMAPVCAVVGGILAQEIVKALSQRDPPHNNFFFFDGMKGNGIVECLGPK
Test: SAE HTRF Enzyme Assay
Format: biochemical
Settings: for IC50: class symbols A-C; for inhibition at 0.111 µM: compound concentration 0.111 μM, read-out: Percent Inhibition
In short: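 SAE 0.11 nM; ATP 0.5 μM; Sumo-Flag 0.125 μM; Ubc9-GST 0.01 μM; 250 μM GSH, 5 mM MgCl2, pH 7.5. 105 min, 24° C. EDTA/KF stop plus Eu/APC antibodies, 2 h, TR-FRET. % inhibition or IC50.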

Work on `NS(=O)(=O)OC[C@H]1C[C@@H](Nc2ncncc2C(=O)c2ccn(Cc3ccc(C(F)(F)F)c(F)c3)n2)[C@H](O)[C@@H]1O` [Compound I-46, [(1R,2R,3S,4R)-4-{[5-({1-[3-fluoro-4-(trifluoromethyl)benzyl]-1H-pyrazol-3-yl}carbonyl)pyrimidin-4-yl]amino}-2,3-dihydroxycyclopentyl]methyl sulfamate] yielded an IC50 of less than 10 nM and an inhibition at 0.111 µM of 96%.

Work on `NS(=O)(=O)OC[C@H]1C[C@@H](Nc2ncncc2C(=O)c2ccn(Cc3ccc(Cl)cc3)n2)C[C@@H]1O` [Compound I-47, {(1R,2S,4R)-4-[(5-{[1-{4-chlorobenzyl)-1H-pyrazol-3-yl]carbonyl}pyrimidin-4-yl)amino]-2-hydroxycyclopentyl}methyl sulfamate] yielded an IC50 of less than 10 nM and an inhibition at 0.111 µM of 98%.

For `NS(=O)(=O)OC[C@H]1C[C@@H](Nc2ncncc2C(=O)c2ccn(Cc3ccc4ccccc4c3)n2)C[C@@H]1O` [Compound I-48, {(1R,2S,4R)-2-hydroxy-4-[(5-{[1-(2-naphthylmethyl)-1H-pyrazol-3-yl]carbonyl}pyrimidin-4-yl)amino]cyclopentyl}methyl sulfamate], the IC50 was less than 10 nM and the inhibition at 0.111 µM was 96%.

Compound `NS(=O)(=O)OC[C@H]1C[C@@H](Nc2ncncc2C(=O)c2ccn(Cc3sc4ccccc4c3Cl)c2)[C@@H](F)[C@@H]1O` [Compound I-49, [(1R,2R,3R,4R)-4-{[5-({1-[(3-chloro-1-benzothiophen-2-yl)methyl]-1H-pyrrol-3-yl}carbonyl)pyrimidin-4-yl]amino}-3-fluoro-2-hydroxycyclopentyl]methyl sulfamate] has an IC50 of less than 10 nM and an inhibition at 0.111 µM of 93%.

Work on `NS(=O)(=O)OC[C@H]1C[C@@H](Nc2ncncc2C(=O)c2ccn(Cc3cc(C(F)(F)F)ccc3Cl)n2)C[C@@H]1O` [Compound I-50, [(1R,2S,4R)-4-{[5-({1-[2-chloro-5-(trifluoromethyl)benzyl]-1H-pyrazol-3-yl}carbonyl)pyrimidin-4-yl]amino}-2-hydroxycyclopentyl]methyl sulfamate] yielded an IC50 of less than 10 nM and an inhibition at 0.111 µM of 99%.

`Cc1ccnc(Cn2ccc(C(=O)c3cncnc3N[C@@H]3C[C@H](COS(N)(=O)=O)[C@@H](O)[C@H]3O)n2)c1` [Compound I-51, [(1R,2R,3S,4R)-2,3-dihydroxy-4-{[5-({1-[(4-methylpyridin-2-yl)methyl]-1H-pyrazol-3-yl}carbonyl)pyrimidin-4-yl]amino}cyclopentyl]methyl sulfamate] showed an IC50 of less than 10 nM and an inhibition at 0.111 µM of 100%.

Compound `NS(=O)(=O)OC[C@H]1C[C@@H](Nc2ccncc2C(=O)c2ccn(Cc3cccc(Cl)c3)n2)C[C@@H]1O` [Compound I-52, {(1R,2S,4R)-4-[(3-{[1-(3-Chlorobenzyl)-1H-pyrazol-3-yl]carbonyl}pyridin-4-yl)amino]-2-hydroxycyclopentyl}methyl sulfamate] has an IC50 of less than 10 nM and an inhibition at 0.111 µM of 99%.

`NS(=O)(=O)OC[C@H]1C[C@@H](Nc2ncncc2C(=O)c2ccn(Cc3ccnc(C(F)(F)F)c3)n2)C[C@@H]1O` [Compound I-53, [(1R,2S,4R)-2-hydroxy-4-({5-[(1-{[2-(trifluoromethyl)pyridin-4-yl]methyl}-1H-pyrazol-3-yl)carbonyl]pyrimidin-4-yl}amino)cyclopentyl]methyl sulfamate] gave an IC50 of 10 to 100 nM and an inhibition at 0.111 µM of 79%.

For `NS(=O)(=O)OC[C@H]1C[C@@H](Nc2ncnc(Cl)c2C(=O)c2ccn(Cc3cccc(Cl)c3)n2)C[C@@H]1O` [Compound I-54, {(1R,2S,4R)-4-[(6-Chloro-5-{[1-(3-chlorobenzyl)-1H-pyrazol-3-yl]carbonyl}pyrimidin-4-yl)amino]-2-hydroxycyclopentyl}methyl sulfamate], the IC50 was 10 to 100 nM and the inhibition at 0.111 µM was 63%.

`CC1CC1Cn1ccc(C(=O)c2cncnc2N[C@@H]2C[C@H](COS(N)(=O)=O)[C@@H](O)C2)n1` (stereo partly drawn) [Compound I-55, [(1R,2S,4R)-hydroxy-4-{[5-({1-[((1S,2S)-2-methylcyclopropyl)methyl]-1H-pyrazol-3-yl}carbonyl)pyrimidin-4-yl]amino}cyclopentyl]methyl sulfamate and [(1R,2S,4R)-2-hydroxy-4-{[5-({1-[((1R,2R)-2-methylcyclopropyl)methyl]-1H-pyrazol-3-yl}carbonyl)pyrimidin-4-yl]amino}cyclopentyl]methyl sulfamate] showed an IC50 of 10 to 100 nM and an inhibition at 0.111 µM of 58%.

Compound `NS(=O)(=O)OC[C@H]1C[C@@H](Nc2ccncc2C(=O)c2ccn(Cc3ccccc3)n2)[C@H](O)[C@@H]1O` [Compound I-56, [(1R,2R,3S,4R)-4-({3-[(1-Benzyl-1H-pyrazol-3-yl)carbonyl]pyridin-4-yl}amino)-2,3-dihydroxycyclopentyl]methyl sulfamate] has an IC50 of less than 10 nM and an inhibition at 0.111 µM of 100%.

For `COc1cc(Cn2ccc(C(=O)c3cncnc3N[C@@H]3C[C@H](COS(N)(=O)=O)[C@@H](O)[C@@H]3F)c2)ccc1F` [Compound I-57, {(1R,2R,3R,4R)-3-Fluoro-4-[(5-{[1-(4-fluoro-3-methoxybenzyl)-1H-pyrrol-3-yl]carbonyl}pyrimidin-4-yl)amino]-2-hydroxycyclopentyl}methyl sulfamate], the IC50 was less than 10 nM and the inhibition at 0.111 µM was 98%.

Work on `NS(=O)(=O)OC[C@H]1C[C@@H](Nc2ncncc2C(=O)c2ccn(Cc3ccc(Cl)c(Cl)c3)n2)C[C@@H]1O` [Compound I-58, {(1R,2S,4R)-4-[(5-{[1-(3,4-dichlorobenzyl)-1H-pyrazol-3-yl]carbonyl}pyrimidin-4-yl)amino]-2-hydroxycyclopentyl}methyl sulfamate] yielded an IC50 of less than 10 nM and an inhibition at 0.111 µM of 88%.

With `NS(=O)(=O)OC[C@H]1C[C@@H](Nc2ncncc2C(=O)c2ccn(CC#CCC3CCCC3)n2)C[C@@H]1O` [Compound I-59, {(1R,2S,4R)-4-[(5-{[1-(4-cyclopentylbut-2-yn-1-yl)-1H-pyrazol-3-yl]carbonyl}pyrimidin-4-yl)amino]-2-hydroxycyclopentyl}methyl sulfamate] the IC50 was 10 to 100 nM and the inhibition at 0.111 µM was 70%.

`CC(C)(O)c1cccc(Cn2ccc(C(=O)c3cncnc3N[C@@H]3C[C@H](COS(N)(=O)=O)[C@@H](O)C3)n2)c1` [Compound I-60, [(1R,2S,4R)-2-hydroxy-4-{[5-({1-[3-(2-hydroxypropan-2-yl)benzyl]-1H-pyrazol-3-yl}carbonyl)pyrimidin-4-yl]amino}cyclopentyl]methyl sulfamate] was tested, and the IC50 was 10 to 100 nM and the inhibition at 0.111 µM was 91%.

Work on `NS(=O)(=O)OC[C@H]1C[C@@H](Nc2ncncc2C(=O)c2cc(Cl)n(Cc3cccc(Cl)c3)c2)[C@@H](F)[C@@H]1O` [Compound I-61] yielded an IC50 of less than 10 nM and an inhibition at 0.111 µM of 99%.

In the case of `NS(=O)(=O)OC[C@H]1C[C@@H](Nc2ncncc2C(=O)c2ccn(Cc3ccc(F)cc3F)n2)C[C@@H]1O` [Compound I-62, {(1R,2S,4R)-4-[(5-{[1-(2,4-difluorobenzyl)-1H-pyrazol-3-yl]carbonyl}pyrimidin-4-yl)amino]-2-hydroxycyclopentyl}methyl sulfamate], the IC50 is reported as less than 10 nM and the inhibition at 0.111 µM is reported as 96%.

For `COc1ncccc1Cn1ccc(C(=O)c2cncnc2N[C@@H]2C[C@H](COS(N)(=O)=O)[C@@H](O)C2)n1` [Compound I-63, [(1R,2S,4R)-2-hydroxy-4-{[5-({1-[(2-methoxypyridin-3-yl)methyl]-1H-pyrazol-3-yl}carbonyl)pyrimidin-4-yl]amino}cyclopentyl]methyl sulfamate], the IC50 was 10 to 100 nM and the inhibition at 0.111 µM was 87%.

`CC(C)(C)c1cccc(Cn2ccc(C(=O)c3cncnc3N[C@@H]3C[C@H](COS(N)(=O)=O)[C@@H](O)C3)n2)c1` [Compound I-64, {(1R,2S,4R)-4-[(5-{[1-(3--tert-butylbenzyl)-1H-pyrazol-3-yl]carbonyl}pyrimidin-4-yl)amino]-2-hydroxycyclopentyl}methyl sulfamate] was tested, and the IC50 was 10 to 100 nM and the inhibition at 0.111 µM was 91%.

`Cc1cc(C(=O)c2cncnc2N[C@@H]2C[C@H](COS(N)(=O)=O)[C@@H](O)C2)nn1Cc1ccccc1` [Compound I-66, [(1R,2S,4R)-4-({5-[(1-benzyl-5-methyl-1H-pyrazol-3-yl)carbonyl]pyrimidin-4-yl}amino)-2-hydroxycyclopentyl]methyl sulfamate] was tested, and the IC50 was less than 10 nM and the inhibition at 0.111 µM was 98%.

Work on `NS(=O)(=O)OC[C@H]1C[C@@H](Nc2ncncc2C(=O)c2ccn(Cc3cccc(NC(=O)CCl)c3)n2)[C@H](O)[C@@H]1O` [Compound I-67, [(1R,2R,3S,4R)-4-({5-[(1-{3-[(chloroacetyl)amino]benzyl}-1H-pyrazol-3-yl)carbonyl]pyrimidin-4-yl}amino)-2,3-dihydroxycyclopentyl]methyl sulfamate] yielded an IC50 of less than 10 nM and an inhibition at 0.111 µM of 94%.
